Blank lines part the entries; values can stand above or below the compound they belong to. The source made the active and inactive calls. The rule behind the calls is not given here.
Tests used:
HeLa [1] = assay: Cytotoxicity against human HeLa cells assessed as cell viability at 50 uM measured after 48 hrs by MTT assay; type: functional; conditions: read-out: Activity
MCF7 [2] = assay: Cytotoxicity against human MCF7 cells assessed as cell viability at 50 uM measured after 48 hrs by MTT assay; type: functional; conditions: MCF7, 48 h, read-out: Activity
[3] = biological target: T1, Retinoic acid receptor RXR-alpha (Homo sapiens) (UniProt P19793); assay: Transrepression of GAL4-fused RXRalpha LBD (unknown origin) expressed in 293T cells assessed as inhibition of 9-cis-RA-induced transcription at 50 uM measured after 12 hrs by dual-luciferase reporter gene assay; type: cell-based
T1 sequence (whole entry): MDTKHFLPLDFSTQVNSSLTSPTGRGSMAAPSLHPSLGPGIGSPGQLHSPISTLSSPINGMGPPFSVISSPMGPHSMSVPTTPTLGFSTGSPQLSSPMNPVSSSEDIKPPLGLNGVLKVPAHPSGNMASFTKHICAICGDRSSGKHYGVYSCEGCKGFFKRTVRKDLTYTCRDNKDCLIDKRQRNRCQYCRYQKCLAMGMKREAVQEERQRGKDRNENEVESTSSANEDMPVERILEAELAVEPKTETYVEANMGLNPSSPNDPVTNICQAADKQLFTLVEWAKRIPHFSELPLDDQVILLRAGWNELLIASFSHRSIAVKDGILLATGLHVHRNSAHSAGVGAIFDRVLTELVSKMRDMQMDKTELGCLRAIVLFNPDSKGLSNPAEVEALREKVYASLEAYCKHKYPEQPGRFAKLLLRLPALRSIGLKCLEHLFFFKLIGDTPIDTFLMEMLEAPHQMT

SMMC-7721 [4] = assay: Cytotoxicity against human SMMC7721 cells assessed as cell viability at 50 uM measured after 48 hrs by MTT assay; type: functional; conditions: SMMC-7721, 48 h, read-out: Activity
HepG2 [5] = assay: Cytotoxicity against human HepG2 cells assessed as cell viability at 50 uM measured after 48 hrs by MTT assay; type: functional; conditions: HepG2, 48 h, read-out: Activity
HeLa [6] = assay: Induction of apoptosis in human HeLa cells assessed as increase in cleaved PARP expression at 20 uM by Western blot analysis; type: functional, cell-based; conditions: TDE = time-dependent effect
[7] = biological target: T1, Retinoic acid receptor RXR-alpha (Homo sapiens); assay: Transrepression of GAL4-fused RXRalpha LBD (unknown origin) expressed in 293T cells assessed as inhibition of 9-cis-RA-induced transcription measured after 12 hrs by dual-luciferase reporter gene assay; type: cell-based
HeLa [8] = assay: Induction of apoptosis in human HeLa cells assessed as increase in caspase-8 activity at 20 uM measured after 10 hrs by Caspase-Glo luminescence assay; type: functional, cell-based
[9] = biological target: T1, Retinoic acid receptor RXR-alpha (Homo sapiens); assay: (§1) Binding affinity to recombinant human RXRalpha LBD ([…] residues) expressed in Escherichia coli BL21 (DE3) by fluorescence quenching assay
[10] = biological target: T2, Retinoic acid receptor RXR-alpha (Homo sapiens, UniProt P19793); assay: as §1
T2 sequence (P19793 whole entry): T1 sequence (whole entry)

MCF7 [11] = assay: Cytotoxicity against human MCF7 cells assessed as reduction in cell viability at 50 uM measured after 48 hrs by MTT assay; type: functional, cell-based
HeLa [12] = assay: Induction of apoptosis in human HeLa cells assessed as increase in cleaved PARP expression after 24 hrs by Western blot analysis; type: functional, cell-based
HepG2 [13] = assay: Cytotoxicity against human HepG2 cells assessed as reduction in cell viability at 50 uM measured after 48 hrs by MTT assay; type: functional, cell-based
HeLa [14] = assay: Cytotoxicity against human HeLa cells assessed as inhibition of cell proliferation at 50 uM measured after 48 hrs by MTT assay; type: functional
HeLa [15] = assay: Induction of apoptosis in human HeLa cells assessed as increase in caspase-3 activity at 20 uM measured after 10 hrs by Caspase-Glo luminescence assay; type: functional, cell-based
SMMC-7721 [16] = assay: Cytotoxicity against human SMMC7721 cells assessed as reduction in cell viability at 50 uM measured after 48 hrs by MTT assay; type: functional, cell-based
HeLa [17] = assay: Induction of apoptosis in human HeLa cells assessed as increase in cleaved PARP expression at 50 uM by Western blot analysis; type: functional, cell-based; conditions: TDE = time-dependent effect
HeLa [18] = assay: Induction of apoptosis in human HeLa cells assessed as increase in caspase-3 activity at 50 uM measured after 10 hrs by Caspase-Glo luminescence assay; type: functional, cell-based
HeLa [19] = assay: Induction of apoptosis in human HeLa cells assessed as increase in caspase-8 activity at 50 uM measured after 10 hrs by Caspase-Glo luminescence assay; type: functional, cell-based

inhibition [3]: Active
Compound: COc1cc([C@H]2OC(=O)[C@H]3[C@@H]2CO[C@@H]3c2ccc(O)c(OC)c2)ccc1O
viability at 50 µM (HeLa [1]): < 50% | viability at 50 µM (MCF7 [2]): < 50% | viability at 50 µM (SMMC-7721 [4]): < 50% | viability at 50 µM (HepG2 [5]): < 50%

Compound: COc1ccc2c(=O)c3cccc(O)c3oc2c1
viability at 50 µM (HeLa [1]): < 50% | viability at 50 µM (MCF7 [2]): < 50% | viability at 50 µM (SMMC-7721 [4]): < 50% | viability at 50 µM (HepG2 [5]): < 50%

inhibition [7]: Dose-dependent effect | Activity [9]: Dose-dependent effect | Kd [10]: 14 µM | inhibition [3]: Active
Compound: CC(C)=CCOc1cc2c(=O)c3c(O)cc(O)cc3oc2cc1O
Activity (HeLa [6]): Tde | Activity (HeLa [8]): Active | Activity (MCF7 [11]): inactive | Activity (HeLa [12]): Dose-dependent effect | Activity (HepG2 [13]): inactive | inhibition at 50 µM (HeLa [14]): > 50% | Activity (HeLa [15]): inactive | Activity (SMMC-7721 [16]): inactive

inhibition [7]: Dose-dependent effect | Activity [9]: Dose-dependent effect | Kd [10]: 68.3 µM | inhibition [3]: Active
Compound: CC[C@H](C)c1cc(=O)c2c(O)cc(O)cc2o1
Activity (HeLa [17]): Tde | Activity (HeLa [18]): inactive | Activity (MCF7 [11]): inactive | Activity (HeLa [12]): Dose-dependent effect | Activity (HepG2 [13]): inactive | inhibition at 50 µM (HeLa [14]): > 50% | Activity (HeLa [19]): Active | Activity (SMMC-7721 [16]): inactive

Compound: Cc1cc2c(cc1-c1cc(/C=C/C(=O)O)ccc1O)C(C)(C)CCC2(C)C
Activity [9]: Dose-dependent effect

inhibition [3]: Active
Compound: CC(C)c1cc(=O)c2c(O)cc(O)cc2o1

inhibition [7]: Dose-dependent effect | inhibition [3]: Active
Compound: COc1cc(-c2cc(=O)c3c(O)cc(O)cc3o2)ccc1O
